Test results taken from PubChem BioAssay (NCI).
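In this assay, cells in 96-well plates receive the compound at five concentrations for 48 hours. Endpoints are linearly interpolated between the surrounding concentrations. GI50 marks 50% less growth. TGI marks complete inhibition of growth.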

Assays:
Assay in all cases: growth of human tumour cells (NCI), 48 h
MDA-MB-435 = system: MDA-MB-435
NCI-H226 lung = system: NCI-H226 lung
SNB-19 CNS = system: SNB-19 CNS
SNB-75 CNS = system: SNB-75 CNS
RPMI-8226 leukemia = system: RPMI-8226 leukemia
OVCAR-5 ovarian = system: OVCAR-5 ovarian
IGROV1 ovarian = system: IGROV1 ovarian
PC-3 prostate = system: PC-3 prostate
MDA-MB-231 breast = system: MDA-MB-231 breast
MCF7 breast = system: MCF7 breast
NCI-H23 lung = system: NCI-H23 lung
SK-MEL-5 melanoma = system: SK-MEL-5 melanoma
HCC-2998 colon = system: HCC-2998 colon
SW-620 colon = system: SW-620 colon
A498 renal = system: A498 renal
ACHN renal = system: ACHN renal
MALME-3M melanoma = system: MALME-3M melanoma
DU-145 prostate = system: DU-145 prostate
HOP-62 NSCLC = system: HOP-62 NSCLC
OVCAR-3 ovarian = system: OVCAR-3 ovarian
K-562 leukemia = system: K-562 leukemia
786-0 renal = system: 786-0 renal
BT-549 breast = system: BT-549 breast
NCI/ADR-RES ovarian = system: NCI/ADR-RES ovarian
CAKI-1 renal = system: CAKI-1 renal
RXF 393 renal = system: RXF 393 renal
SF-268 CNS = system: SF-268 CNS
SF-539 CNS = system: SF-539 CNS
A549 NSCLC = system: A549 NSCLC

## COc1ccc([C@@H]2[C@@H](O)C(=O)N2c2cc(OC)c(OC)c(OC)c2)cc1
MDA-MB-435
  TGI: 83.7 nM
NCI-H226 lung
  GI50: 525 nM
  TGI: > 100000 nM
SNB-19 CNS
  GI50: 120 nM
  TGI: > 100000 nM
SNB-75 CNS
  GI50: 46.5 nM
  TGI: > 100000 nM
RPMI-8226 leukemia
  GI50: 44.8 nM
  TGI: 5610 nM
OVCAR-5 ovarian
  GI50: 61.3 nM
  TGI: > 100000 nM
IGROV1 ovarian
  GI50: 57.7 nM
  TGI: > 100000 nM
PC-3 prostate
  GI50: 85.6 nM
  TGI: > 100000 nM
MDA-MB-231 breast
  GI50: 55.8 nM
  TGI: > 100000 nM
MCF7 breast
  GI50: 35.1 nM
  TGI: > 100000 nM
NCI-H23 lung
  GI50: 63 nM
  TGI: > 100000 nM
SK-MEL-5 melanoma
  GI50: 45.2 nM
  TGI: 232 nM
HCC-2998 colon
  GI50: 98.2 nM
  TGI: 10000 nM
SW-620 colon
  GI50: 50.4 nM
  TGI: > 100000 nM
A498 renal
  GI50: 11300 nM
  TGI: > 88700 nM
ACHN renal
  GI50: 72.3 nM
  TGI: > 100000 nM
MALME-3M melanoma
  GI50: 105 nM
  TGI: > 100000 nM
DU-145 prostate
  GI50: 76.1 nM
  TGI: > 100000 nM
HOP-62 NSCLC
  GI50: 75.8 nM
  TGI: > 100000 nM
OVCAR-3 ovarian
  GI50: 34.5 nM
  TGI: 327 nM
K-562 leukemia
  GI50: 33.9 nM
  TGI: > 100000 nM
786-0 renal
  GI50: 91.6 nM
  TGI: > 100000 nM
BT-549 breast
  GI50: 94.1 nM
  TGI: 2430 nM
NCI/ADR-RES ovarian
  GI50: 72.5 nM
  TGI: > 100000 nM
CAKI-1 renal
  GI50: 48.6 nM
  TGI: > 33800 nM
RXF 393 renal
  GI50: 26 nM
  TGI: > 100000 nM
SF-268 CNS
  GI50: 214 nM
  TGI: > 100000 nM
SF-539 CNS
  GI50: 30.5 nM
  TGI: > 100000 nM
A549 NSCLC
  GI50: 92.4 nM
  TGI: > 100000 nM
